Consider nine compounds from article PMC10449060 (Analysis & sensing, 2022).

“Also recorded” adds a separate entry of the source.

One data set deals with cathepsin B (CatB). Put plainly: cathepsin B in 50 mM acetate buffer pH 5 with 1 mM EDTA and 1 mM DTT. Particulars: up to 8 hours.
The next data set deals with cathepsin F (CatF). Put plainly: cathepsin F in 50 mM acetate buffer pH 5 with 1 mM EDTA and 1 mM DTT. Particulars: up to 24 hours.
Data set [1] concerns the target T1, CatC (Homo sapiens, UniProt P53634). Particulars: only at high concentrations; cited from earlier work.
The target in data set [2] is T1, CatC. Briefly: E-64 inhibition of CatC activity. The class given is biochemical. Particulars: compared with literature ~500 μM.
For the next data set, the system named is cathepsin C (CatC). Put plainly: cathepsin C. Particulars: 37°C, up to 24 hours.
The test system of the next data set is cathepsin A (CatA). Put plainly: cathepsin A. Particulars: 37°C, up to 8 hours.
A further data set deals with cathepsin L (CatL). Put plainly: cathepsin L in 50 mM acetate buffer pH 5 with 1 mM EDTA and 1 mM DTT. Particulars: up to 8 hours.
Another data set concerns cathepsin H (CatH). Put plainly: cathepsin H in 50 mM acetate buffer pH 5 with 1 mM EDTA and 1 mM DTT. Particulars: up to 24 hours.
The next data set has as its system cathepsin F. Briefly: 50 mM acetate buffer pH 5 with 1 mM EDTA and 1 mM DTT. Particulars: up to 24 hours.

T1 sequence (P53634 25-134 limits assumed): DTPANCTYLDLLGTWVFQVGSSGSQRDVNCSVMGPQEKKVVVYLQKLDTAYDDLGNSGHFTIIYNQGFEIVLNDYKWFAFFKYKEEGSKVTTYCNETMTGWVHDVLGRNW
T1 sequence (P53634 231-394 limits assumed): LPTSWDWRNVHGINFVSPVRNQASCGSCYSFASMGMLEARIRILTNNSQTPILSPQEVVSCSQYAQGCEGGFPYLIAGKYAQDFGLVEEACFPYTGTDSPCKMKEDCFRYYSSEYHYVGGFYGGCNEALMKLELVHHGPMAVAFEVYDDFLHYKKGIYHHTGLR
T1 sequence (P53634 395-463 limits assumed): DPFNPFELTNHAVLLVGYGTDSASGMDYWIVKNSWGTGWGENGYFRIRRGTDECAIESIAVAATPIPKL

As to SEMRLEKDRFSVNL, the fragment found result in the data set on cathepsin B (CatB) was “SEMRLEKDRF and SEMRLEKDR and LEKDRF and EKDRF and KDRF”; with cathepsin F (CatF) it was “SEMRLE; also recorded: KDRFSVNL; also recorded: SEMR, minor, longer time-points”.
With SEMRLEKDRFSVNL (L-isoAsp variant), in the data set with cathepsin B (CatB), the fragment found result was “SEMRLEKDRFS and SEMRLEKDRF and SEMRLEKDR and KDRF”; the not cleaved result is “no cleavage C-terminal to isomerized Asp”.
As for `CC(C)C[C@H](NC(=O)[C@H]1O[C@@H]1C(=O)O)C(=O)NCCCCN=C(N)N` (relative stereo) [E-64, L-trans-Epoxysuccinyl-leucylamido(4-guanidino) butane], the “concentration at which E-64 inhibits CatC” value on CatC [1] is given as ~ 500 μM. The “E-64 inhibition of CatC activity observed by the authors” value at CatC [2] is “activity inhibition at much-reduced concentration”.
Take AKAKTDHGAEIVYK (D-isoAsp variant): the fragment found result was “IVYK” in the data set on cathepsin C (CatC); “AKAKTDHGAEIVY, 0.5h; also recorded: AKAKTDHGAEIV; also recorded: AKAKTDHGAEI” in the data set on cathepsin A (CatA); “IVYK and AKTDHGAEIVYK and AKAKTDHGAEIVY” in the data set on cathepsin L (CatL); “TDHGAEIVYK” in the data set on cathepsin H (CatH). Also, the not cleaved entry is “no TDHGAEIVYK after 24 h” with cathepsin C (CatC) and “no proteolytic digestion” in the data set on cathepsin F (CatF).
In the case of AKAKTDHGAEIVYK (L-isoAsp variant), the not cleaved result with cathepsin C (CatC) is reported as “no TDHGAEIVYK after 24 h”. For the same compound, the fragment found entry in the data set on cathepsin A (CatA) is “AKAKTDHGAEIVY, 0.5h; also recorded: AKAKTDHGAEIV; also recorded: AKAKTDHGAEI”; in the data set on cathepsin L (CatL) it was “AKAKTDHGAEIVY and IVYK and AKTDHGAEIVYK”; in the data set on cathepsin H (CatH), “TDHGAEIVYK”.
For SEMRLEKDRFSVNL (D-isoAsp variant), in the data set with cathepsin B (CatB), the fragment found entry is “SEMRLEKDRF; also recorded: SEMRLEKDR” and the not cleaved result is “no cleavage C-terminal to isomerized Asp”.
For SEMRLEKDRFSVNL (D-Asp variant), in that order: “SEMRLEKDRF; also recorded: SEMRLEKDR” and “no cleavage C-terminal to isomerized Asp”.
For the compound AKAKTDHGAEIVYK (D-Asp variant), the values for the not cleaved entry in the data set with cathepsin C (CatC) and in the data set on cathepsin F (CatF) were “no TDHGAEIVYK after 24 h” and “no proteolytic digestion”, respectively. In addition, the fragment found result was “AKAKTDHGAEIVY, 0.5h; also recorded: AKAKTDHGAEIV; also recorded: AKAKTDHGAEI” with cathepsin A (CatA); “IVYK and AKTDHGAEIVYK and AKAKTDHGAEIVY” in the data set on cathepsin L (CatL); “TDHGAEIVYK” with cathepsin H (CatH).
For the compound AKAKTDHGAEIVYK, the fragment found result with cathepsin C (CatC) was “TDHGAEIVYK”; with cathepsin A (CatA), “AKAKTDHGAEIVY, 0.5h; also recorded: AKAKTDHGAEIV; also recorded: AKAKTDHGAEI; also recorded: KTDHGAEIV; also recorded: AKTDHGAEIV; also recorded: KTDHGAEI; also recorded: AKTDHGAEI”; in the data set on cathepsin L (CatL) it was “IVYK and TDHGAEIVY and HGAEIVYK and GAEIVYK and AKTDHGAEIVYK and AKAKTDHGAEIVY”; in the data set with cathepsin H (CatH) it was “TDHGAEIVYK; also recorded: DHGAEIVYK”. Also, the not cleaved result with cathepsin F and with cathepsin F (CatF) was “no proteolytic digestion” throughout.
